In patent US9073855B2, “BCL-2 selective apoptosis-inducing agents for the treatment of cancer and immune diseases” (AbbVie Inc., priority 2008, dated 2015):

How the values were obtained:
[1] = target: GST-Bcl-XL (Homo sapiens, UniProt Q07817); experiment: TR-FRET binding assay, GST-Bcl-XL with F-Bak peptide probe; details: TR-FRET Binding Affinity
Outline: (§1)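 Compounds were serially diluted in DMSO from a 50 μM starting solution (2× the starting concentration; 10% DMSO). Plates were incubated for 3 h at room temperature, and TR-FRET was read with 340/35 nm excitation and emission at 520/525 nm (F-Bak) and 495/510 nm (Tb antibody). Ki values were calculated using Wang's competitive-binding equation.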

[2] = target: GST-Bcl-2 (Homo sapiens, UniProt P10415); experiment: TR-FRET binding assay, GST-Bcl-2 with F-Bak peptide probe; details: for Ki: TR-FRET Binding Affinity; for Binding selectivity ratio (Bcl-XL Ki/Bcl-2 Ki): TR-FRET, Bcl-XL Ki divided by Bcl-2 Ki
Outline: as §1

Chain of GST-Bcl-2 (P10415 whole entry): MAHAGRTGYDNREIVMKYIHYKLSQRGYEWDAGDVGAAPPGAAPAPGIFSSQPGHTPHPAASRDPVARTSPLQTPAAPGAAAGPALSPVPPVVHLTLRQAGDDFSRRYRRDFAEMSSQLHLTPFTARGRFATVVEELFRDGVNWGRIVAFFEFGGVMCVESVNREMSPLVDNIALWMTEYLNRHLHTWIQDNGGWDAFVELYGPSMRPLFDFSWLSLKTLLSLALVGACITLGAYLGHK
Chain of GST-Bcl-XL (Q07817 whole entry): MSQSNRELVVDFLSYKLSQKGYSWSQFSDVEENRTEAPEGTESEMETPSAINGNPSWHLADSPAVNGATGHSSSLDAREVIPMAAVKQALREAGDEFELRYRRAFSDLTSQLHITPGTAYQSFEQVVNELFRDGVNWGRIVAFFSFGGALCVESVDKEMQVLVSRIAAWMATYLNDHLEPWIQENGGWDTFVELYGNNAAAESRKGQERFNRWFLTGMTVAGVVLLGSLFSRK

In the case of `CC1(C)CCC(CN2CCN(c3ccc(C(=O)NS(=O)(=O)c4cnc(OC[C@]5(F)CC[C@](C)(O)CC5)c(Cl)c4)c(Oc4cccc5[nH]ncc45)c3)CC2)=C(c2ccc(Cl)cc2)C1` [Example 513, N-({5-chloro-6-[(trans-1-fluoro-4-hydroxy-4-methylcyclohexyl)methoxy]pyridin-3-yl}sulfonyl)-4-(4-{[2-(4-chlorophenyl)-4,4-dimethylcyclohex-1-en-1-yl]methyl}piperazin-1-yl)-2-(1H-indazol-4-yloxy)benzamide], the Ki [1] is reported as 6.46 nM, the Ki [2] is reported as less than 0.01 nM and the “Binding selectivity ratio (Bcl-XL Ki/Bcl-2 Ki)” value (“Binding selectivity ratio” below) [2] is reported as greater than 646.2.

For `CC1(C)CCC(CN2CCN(c3ccc(C(=O)NS(=O)(=O)c4ccc(NCC5(F)CCOCC5)c([N+](=O)[O-])c4)c(Oc4cccc5[nH]nnc45)c3)CC2)=C(c2ccc(Cl)cc2)C1` [Example 514, 2-(1H-benzotriazol-4-yloxy)-4-(4-{[2-(4-chlorophenyl)-4,4-dimethylcyclohex-1-en-1-yl]methyl}piperazin-1-yl)-N-[(4-{[(4-fluorotetrahydro-2H-pyran-4-yl)methyl]amino}-3-nitrophenyl)sulfonyl]benzamide], the Ki [1] was 10.4 nM, the Ki [2] was less than 0.01 nM and the “Binding selectivity ratio” value [2] was greater than 1041.3.

`CC1(C)CCC(CN2CCN(c3ccc(C(=O)NS(=O)(=O)c4cnc(OCC5(F)CCOCC5)c(Cl)c4)c(Oc4cccc5[nH]nnc45)c3)CC2)=C(c2ccc(Cl)cc2)C1` [Example 515, 2-(1H-benzotriazol-4-yloxy)-N-({5-chloro-6-[(4-fluorotetrahydro-2H-pyran-4-yl)methoxy]pyridin-3-yl}sulfonyl)-4-(4-{[2-(4-chlorophenyl)-4,4-dimethylcyclohex-1-en-1-yl]methyl}piperazin-1-yl)benzamide] was tested, and the Ki [1] was 140 nM, the Ki [2] was less than 0.01 nM and the “Binding selectivity ratio” value [2] was greater than 13994.0.

`CC1(C)CCC(CN2CCN(c3ccc(C(=O)NS(=O)(=O)c4ccc(OCC5CCOCC5)c(Cl)c4)c(Oc4cccc5[nH]cnc45)c3)CC2)=C(c2ccc(Cl)cc2)C1` [Example 516, 2-(1H-benzimidazol-4-yloxy)-4-(4-{[2-(4-chlorophenyl)-4,4-dimethylcyclohex-1-en-1-yl]methyl}piperazin-1-yl)-N-{[3-chloro-4-(tetrahydro-2H-pyran-4-ylmethoxy)phenyl]sulfonyl}benzamide] was tested, and the Ki [1] was 4.82 nM, the Ki [2] was less than 0.01 nM and the “Binding selectivity ratio” value [2] was greater than 482.3.

`CC1(C)CCC(CN2CCN(c3ccc(C(=O)NS(=O)(=O)c4ccc(OCC5(F)CCN(C6COC6)CC5)c(Cl)c4)c(Oc4cccc5[nH]ncc45)c3)CC2)=C(c2ccc(Cl)cc2)C1` [Example 517, N-[(3-chloro-4-{[4-fluoro-1-(oxetan-3-yl)piperidin-4-yl]methoxy}phenyl)sulfonyl]-4-(4-{[2-(4-chlorophenyl)-4,4-dimethylcyclohex-1-en-1-yl]methyl}piperazin-1-yl)-2-(1H-indazol-4-yloxy)benzamide] was tested, and the Ki [1] was 6.08 nM, the Ki [2] was less than 0.01 nM and the “Binding selectivity ratio” value [2] was greater than 607.7.

With `CC1(C)CCC(CN2CCN(c3ccc(C(=O)NS(=O)(=O)c4cnc(OCC5(F)CCC(O)CC5)c(Cl)c4)c(Oc4cccc5[nH]ncc45)c3)CC2)=C(c2ccc(Cl)cc2)C1` (stereo not drawn) [Example 518, N-({5-chloro-6-[(cis-1-fluoro-4-hydroxycyclohexyl)methoxy]pyridin-3-yl}sulfonyl)-4-(4-{[2-(4-chlorophenyl)-4,4-dimethylcyclohex-1-en-1-yl]methyl}piperazin-1-yl)-2-(1H-indazol-4-yloxy)benzamide] the Ki [1] was 2.55 nM, the Ki [2] was less than 0.01 nM and the “Binding selectivity ratio” value [2] was greater than 254.6.

With `CC1(C)CCC(CN2CCN(c3ccc(C(=O)NS(=O)(=O)c4ccc(OCC5(F)CCOCC5)c([N+](=O)[O-])c4)c(Oc4cccc5[nH]nnc45)c3)CC2)=C(c2ccc(Cl)cc2)C1` [Example 519, 2-(1H-benzotriazol-4-yloxy)-4-(4-{[2-(4-chlorophenyl)-4,4-dimethylcyclohex-1-en-1-yl]methyl}piperazin-1-yl)-N-({4-[(4-fluorotetrahydro-2H-pyran-4-yl)methoxy]-3-nitrophenyl}sulfonyl)benzamide] the Ki [1] was 311 nM, the Ki [2] was 0.012 nM and the “Binding selectivity ratio” value [2] was 25935.4.
